Experimental data from the supplement of paper PMC4862054.

test system: MCF-10A; assay: normalised response (% of control), CellTiter-Glo; higher = more viable cells (100 = DMSO, 0 = benzethonium chloride kill control); settings: incubation time: 72 h
Method in brief: (§1)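 Breast cancer cell lines (20 µl suspension) were seeded into 384-well plates holding compound at 5 concentrations in 10-fold steps over a compound-specific 10,000-fold range, then incubated 72 h. CellTox Green fluorescence (485/520 nm) was read first, then CellTiter-Glo luminescence after 10 min at room temperature. Each plate was normalised to 0.1 % DMSO (100) and a positive kill control (0). Each value is the normalised signal at a single concentration of the series.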

Going from `CNCc1ccc(-c2[nH]c3cc(F)cc4c3c2CCNC4=O)cc1` [Rucaparib] (10000 nM) to `COc1cc2nccc(Oc3ccc(NC(=O)C4(C(=O)Nc5ccc(F)cc5)CC4)cc3)c2cc1OC` [Cabozantinib] (1000 nM), the normalised response rises from 82.8% to 94.6%.

First: CO[C@H]1/C=C\C=C(/C)C(=O)NC2=CC(=O)C(NCCN(C)C)=C(C[C@@H](C)C[C@H](OC)[C@H](O)[C@@H](C)/C=C(\C)[C@@H]1OC(N)=O)C2=O [Alvespimycin] (1000 nM)
Second: Cc1ccc(-n2nc(C(C)(C)C)cc2NC(=O)Nc2ccc(OCCN3CCOCC3)c3ccccc23)cc1 [Doramapimod] (10000 nM)
The normalised response of the first is lower: 15.4% for the first, 94.2% for the second.

Going from `CN(C)/N=N/c1[nH]cnc1C(N)=O` [Dacarbazine] (10000 nM) to `CC1(C)NC(=O)N(c2ccc([N+](=O)[O-])c(C(F)(F)F)c2)C1=O` [Nilutamide] (10000 nM), the normalised response rises from 102% to 104%.

First: C[C@]12CC[C@@H]3c4ccc(O)cc4C[C@@H](CCCCCCCCC[S+]([O-])CCCC(F)(F)C(F)(F)F)[C@H]3[C@@H]1CC[C@@H]2O (some centres not stated) [Fulvestrant] (1000 nM)
Second: Cc1ccc(C(=O)Nc2ccc(CN3CCN(C)CC3)c(C(F)(F)F)c2)cc1C#Cc1cnc2cccnn12 [Ponatinib] (1000 nM)
The normalised response of the first is higher: 101% for the first, 34.4% for the second.

test system: MDA-MB-436; assay: as above; settings: incubation time: 72 h
Method in brief: as §1

Going from `O=C1CCC(N2C(=O)c3ccccc3C2=O)C(=O)N1` (configuration not stated) [Thalidomide] (10000 nM) to `CCC1(c2ccc(N)cc2)CCC(=O)NC1=O` (configuration not stated) [Aminoglutethimide] (10000 nM), the normalised response rises from 96% to 102%.

Compared with `Oc1nc(-c2ccc(C(F)(F)F)cc2)nc2c1CSCC2` [XAV-939] (10000 nM), `Cn1c(Nc2ccc(C(F)(F)F)cc2)nc2cc(Oc3ccnc(-c4ncc(C(F)(F)F)[nH]4)c3)ccc21` [RAF265] (1000 nM) is lower in normalised response: 91.8% for the first, 67.7% for the second.

Compared with `O=P1(NCCCl)OCCCN1CCCl` (configuration not stated) [Ifosfamide] (10000 nM), `Cn1c(CCCC(=O)O)nc2cc(N(CCCl)CCCl)ccc21` [Bendamustine] (10000 nM) is higher in normalised response: 92.5% for the first, 105% for the second.

First: Clc1ccc(Nc2nnc(Cc3ccncc3)c3ccccc23)cc1 [Vatalanib] (10000 nM)
Second: Cc1ccc(C(=O)N(CCCN)[C@@H](c2oc3cc(Cl)ccc3c(=O)c2Cc2ccccc2)C(C)C)cc1 (100 nM)
The normalised response of the first is higher: 109% for the first, 88.3% for the second.

Compared with `C[C@@H](Oc1cc(-c2cnn(C3CCNCC3)c2)cnc1N)c1c(Cl)ccc(F)c1Cl` [Crizotinib] (1000 nM), `CNCc1ccc(-c2[nH]c3cc(F)cc4c3c2CCNC4=O)cc1` [Rucaparib] (10000 nM) is lower in normalised response: 102% for the first, 85.7% for the second.

First: CN[C@@H]1C[C@H]2O[C@@](C)([C@@H]1OC)n1c3ccccc3c3c4c(c5c6ccccc6n2c5c31)C(=O)N[C@H]4O [UCN-01] (10000 nM)
Second: Cc1ccc(-n2nc(C(C)(C)C)cc2NC(=O)Nc2ccc(OCCN3CCOCC3)c3ccccc23)cc1 [Doramapimod] (10000 nM)
The normalised response of the first is lower: 7.46% for the first, 99.7% for the second.

Going from `C#Cc1cccc(Nc2ncnc3cc(OCCOC)c(OCCOC)cc23)c1` [Erlotinib] (10000 nM) to `COc1cc2nccc(Oc3ccc(NC(=O)C4(C(=O)Nc5ccc(F)cc5)CC4)cc3)c2cc1OC` [Cabozantinib] (1000 nM), the normalised response rises from 79% to 101%.

First: N.N.[Cl][Pt][Cl] [Cisplatin] (1000 nM)
Second: C=C(c1ccc(C(=O)O)cc1)c1cc2c(cc1C)C(C)(C)CCC2(C)C [Bexarotene] (10000 nM)
The normalised response of the first is higher: 100% for the first, 95.9% for the second.

Going from `N[C@@H](CSC(c1ccccc1)(c1ccccc1)c1ccccc1)C(=O)O` [S-trityl-L-cysteine] (40000 nM) to `Cc1ccc(C(=O)Nc2ccc(CN3CCN(C)CC3)c(C(F)(F)F)c2)cc1C#Cc1cnc2cccnn12` [Ponatinib] (1000 nM), the normalised response falls from 95.3% to 64.7%.

First: CO[C@H]1/C=C\C=C(/C)C(=O)NC2=CC(=O)C(NCCN(C)C)=C(C[C@@H](C)C[C@H](OC)[C@H](O)[C@@H](C)/C=C(\C)[C@@H]1OC(N)=O)C2=O [Alvespimycin] (1000 nM)
Second: C[C@]12CC[C@@H]3c4ccc(O)cc4C[C@@H](CCCCCCCCC[S+]([O-])CCCC(F)(F)C(F)(F)F)[C@H]3[C@@H]1CC[C@@H]2O (some centres not stated) [Fulvestrant] (1000 nM)
The normalised response of the first is lower: 44.9% for the first, 105% for the second.

Compared with `CN(C)/N=N/c1[nH]cnc1C(N)=O` [Dacarbazine] (10000 nM), `CC1(C)NC(=O)N(c2ccc([N+](=O)[O-])c(C(F)(F)F)c2)C1=O` [Nilutamide] (10000 nM) is higher in normalised response: 108% for the first, 114% for the second.

test system: CAL-51; assay: as above; settings: incubation time: 72 h
Method in brief: as §1

Work on `CN(C)/N=N/c1[nH]cnc1C(N)=O` [Dacarbazine] (1000 nM) yielded a normalised response of 91.2%.

test system: BT-549; assay: as above; settings: incubation time: 72 h
Method in brief: as §1

For `CN(C)/N=N/c1[nH]cnc1C(N)=O` [Dacarbazine] (1000 nM), the normalised response was 101%.

test system: HCC1937; assay: as above; settings: incubation time: 72 h
Method in brief: as §1

Compound `CN(C)/N=N/c1[nH]cnc1C(N)=O` [Dacarbazine] (1000 nM) has a normalised response of 101%.

test system: MDA-MB-468; assay: as above; settings: incubation time: 72 h
Method in brief: as §1

For `CN(C)/N=N/c1[nH]cnc1C(N)=O` [Dacarbazine] (1000 nM), the normalised response was 117%.

test system: HCC1599; assay: as above; settings: incubation time: 72 h
Method in brief: as §1

Compound `CN(C)/N=N/c1[nH]cnc1C(N)=O` [Dacarbazine] (1000 nM) has a normalised response of 111%.

test system: HCC1143; assay: as above; settings: incubation time: 72 h
Method in brief: as §1

Work on `CN(C)/N=N/c1[nH]cnc1C(N)=O` [Dacarbazine] (1000 nM) yielded a normalised response of 103%.

test system: CAL-120; assay: as above; settings: incubation time: 72 h
Method in brief: as §1

With `CN(C)/N=N/c1[nH]cnc1C(N)=O` [Dacarbazine] (1000 nM) the normalised response was 96%.

test system: MDA-MB-231; assay: as above; settings: incubation time: 72 h
Method in brief: as §1

In the case of `CN(C)/N=N/c1[nH]cnc1C(N)=O` [Dacarbazine] (1000 nM), the normalised response is reported as 105%.

test system: CAL-148; assay: as above; settings: incubation time: 72 h
Method in brief: as §1

For `CN(C)/N=N/c1[nH]cnc1C(N)=O` [Dacarbazine] (1000 nM), the normalised response was 97.8%.

test system: Hs578T; assay: as above; settings: incubation time: 72 h
Method in brief: as §1

Compound `CN(C)/N=N/c1[nH]cnc1C(N)=O` [Dacarbazine] (1000 nM) has a normalised response of 105%.

test system: MFM-223; assay: as above; settings: incubation time: 72 h
Method in brief: as §1

Compound `CN(C)/N=N/c1[nH]cnc1C(N)=O` [Dacarbazine] (1000 nM) has a normalised response of 105%.

test system: MDA-MB-453; assay: as above; settings: incubation time: 72 h
Method in brief: as §1

In the case of `CN(C)/N=N/c1[nH]cnc1C(N)=O` [Dacarbazine] (1000 nM), the normalised response is reported as 104%.

test system: CAL-85-1; assay: as above; settings: incubation time: 72 h
Method in brief: as §1

For `CN(C)/N=N/c1[nH]cnc1C(N)=O` [Dacarbazine] (1000 nM), the normalised response was 100%.

test system: SK-BR-3; assay: as above; settings: incubation time: 72 h
Method in brief: as §1

For `CN(C)/N=N/c1[nH]cnc1C(N)=O` [Dacarbazine] (1000 nM), the normalised response was 102%.

test system: HDQ-P1; assay: as above; settings: incubation time: 72 h
Method in brief: as §1

With `CN(C)/N=N/c1[nH]cnc1C(N)=O` [Dacarbazine] (1000 nM) the normalised response was 95.4%.

test system: DU-4475; assay: as above; settings: incubation time: 72 h
Method in brief: as §1

For `CN(C)/N=N/c1[nH]cnc1C(N)=O` [Dacarbazine] (1000 nM), the normalised response was 101%.

test system: MCF-10A; assay: as above; settings: incubation time: 72 h; remark: another data set of the same source
Method in brief: as §1

`CN(C)/N=N/c1[nH]cnc1C(N)=O` [Dacarbazine] (1000 nM) was tested, and the normalised response was 104%.

test system: BT-474; assay: as above; settings: incubation time: 72 h
Method in brief: as §1

In the case of `CN(C)/N=N/c1[nH]cnc1C(N)=O` [Dacarbazine] (1000 nM), the normalised response is reported as 101%.

test system: MDA-MB-436; assay: as above; settings: incubation time: 72 h; remark: another data set of the same source
Method in brief: as §1

In the case of `CN(C)/N=N/c1[nH]cnc1C(N)=O` [Dacarbazine] (1000 nM), the normalised response is reported as 101%.

test system: CAL-51; assay: not given; settings: 72 h
Method in brief: (§2)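 Breast cancer cell lines in 20 µl suspension were added to 384-well plates already holding compound at 5 concentrations, spaced in 10-fold steps across a compound-specific 10,000-fold range, and incubated for 72 h. CellTox Green fluorescence (485/520 nm) was read first to measure cell death, followed by CellTiter-Glo luminescence for viability after 10 min at room temperature. Each plate was normalised to 0.1 % DMSO and a positive kill control. EC50 values came from dose-response curve fits and were censored at the top concentration.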

First: Oc1nc(-c2ccc(C(F)(F)F)cc2)nc2c1CSCC2 [XAV-939]
Second: NC(=O)Nc1cc(-c2cccc(F)c2)sc1C(=O)N[C@H]1CCCNC1 [AZD7762]
The “EC50, CellTiter-Glo” value of the first is 56-fold lower: 12.6 nM for the first, 707 nM for the second.

First: CC1(C)NC(=O)N(c2ccc([N+](=O)[O-])c(C(F)(F)F)c2)C1=O [Nilutamide]
Second: CS(=O)(=O)c1ccc(C2=C(c3ccccc3)C(=O)OC2)cc1 [Rofecoxib]
The “EC50, CellTiter-Glo” value of the first is lower: 724 nM for the first, over 10000 nM for the second.

`O=C(CCCCCCC(=O)Nc1ccc([C@H]2O[C@@H](CSc3nc(-c4ccccc4)c(-c4ccccc4)o3)C[C@@H](c3ccc(CO)cc3)O2)cc1)NO` [Tubacin] was tested, and the “EC50, CellTiter-Glo” value was 4570 nM.

test system: MDA-MB-468; assay: not given; settings: 72 h
Method in brief: as §2

Going from `NC(=O)Nc1cc(-c2cccc(F)c2)sc1C(=O)N[C@H]1CCCNC1` [AZD7762] to `COc1cc2ncnc(Nc3ccc(F)c(Cl)c3)c2cc1NC(=O)/C=C/CN1CCCCC1` [Dacomitinib], the “EC50, CellTiter-Glo” value falls from 596 nM to 179 nM (3.3-fold).

Compared with `Cc1ccc(-n2nc(C(C)(C)C)cc2NC(=O)Nc2ccc(OCCN3CCOCC3)c3ccccc23)cc1` [Doramapimod], `N#CCNC(=O)c1ccc(-c2ccnc(Nc3ccc(N4CCOCC4)cc3)n2)cc1` [Momelotinib] is 3.7-fold higher in “EC50, CellTiter-Glo” value: 937 nM for the first, 3480 nM for the second.

Compared with `Cn1c(Nc2ccc(C(F)(F)F)cc2)nc2cc(Oc3ccnc(-c4ncc(C(F)(F)F)[nH]4)c3)ccc21` [RAF265], `O=C(CCCCCCC(=O)Nc1ccc([C@H]2O[C@@H](CSc3nc(-c4ccccc4)c(-c4ccccc4)o3)C[C@@H](c3ccc(CO)cc3)O2)cc1)NO` [Tubacin] is 12-fold higher in “EC50, CellTiter-Glo” value: 142 nM for the first, 1730 nM for the second.

test system: BT-474; assay: not given; settings: 72 h
Method in brief: as §2

First: Oc1nc(-c2ccc(C(F)(F)F)cc2)nc2c1CSCC2 [XAV-939]
Second: Cn1c(Nc2ccc(C(F)(F)F)cc2)nc2cc(Oc3ccnc(-c4ncc(C(F)(F)F)[nH]4)c3)ccc21 [RAF265]
The “EC50, CellTiter-Glo” value of the first is 2-fold lower: 350 nM for the first, 692 nM for the second.

Compared with `NC(=O)Nc1cc(-c2cccc(F)c2)sc1C(=O)N[C@H]1CCCNC1` [AZD7762], `COc1cc2ncnc(Nc3ccc(F)c(Cl)c3)c2cc1NC(=O)/C=C/CN1CCCCC1` [Dacomitinib] is higher in “EC50, CellTiter-Glo” value: 233 nM for the first, over 1000 nM for the second.

First: O=P1(NCCCl)OCCCN1CCCl (configuration not stated) [Ifosfamide]
Second: N#CCNC(=O)c1ccc(-c2ccnc(Nc3ccc(N4CCOCC4)cc3)n2)cc1 [Momelotinib]
The “EC50, CellTiter-Glo” value of the first is higher: over 10000 nM for the first, 5780 nM for the second.

With `O=C(CCCCCCC(=O)Nc1ccc([C@H]2O[C@@H](CSc3nc(-c4ccccc4)c(-c4ccccc4)o3)C[C@@H](c3ccc(CO)cc3)O2)cc1)NO` [Tubacin] the “EC50, CellTiter-Glo” value was 3650 nM.
